In patent publication US20180118721A1, “PYRIMIDINE DERIVATIVES” (Merck Patent GmbH, priority 2015, published 2018):

Target: T1, purified human recombinant MTH1 (human MTH1, residues 42-197) (Homo sapiens, UniProt P36639)
T1 construct: human MTH1, residues 42-197, Uniprot-ID: P36639, expressed in E. coli; made in house; host or cells: E. coli
Experiment: MTH1 enzymatic assay (luminescence-based, PPiLight)
Type: biochemical
Conditions: 6 μM 8-oxo-dGTP, Table 1, grouped
Experimental: The IC50 value was determined by a MTH1 enzymatic assay. The assay comprises the principal steps of incubating a mixture of MTH1, the compound in question at different concentrations and 8-oxo-2′-deoxyguanosine-5′-triphosphate (8-oxo-dGTP) in assay buffer. Nucleotide triphosphate hydrolysis by MTH1, i.e. decomposition of 8-oxo-2′-deoxyguanosine-5′-triphosphate, produces 8-oxo-2′-deoxyguanosine-5′-monophosphate (8-oxo-dGMP) and pyrophosphate (PPi). The amount of generated pyrophosphate (PPi) is then measured by a bioluminescent reaction. In detail: The MTH1 (human mutT homologue 1) enzymatic assay is performed as a luminescence-based 384-well assay. […] The assay buffer contains 100 mM Tris-acetate pH 7.5, 40 mM NaCl, 10 mM Mg(OAc)2, 0.005% Tween 20 and 2 mM dithiothreitol (DTT). […] Then, in a second step, the substrate 8-oxo-dGTP is added and the reaction mixture is incubated for 30 minutes at 22° C. The pharmacologically relevant assay volume is 5 PI. The final concentrations in the assay during incubation of the reaction mixture are 0.1-0.2 nM, typically 0.1 nM, MTH1 and 6 μM 8-oxo-dGTP. After incubation of the reaction mixture, the generation of pyrophosphate (PPi) as a result of nucleotide triphosphate (8-oxo-dGTP) hydrolysis by MTH1 is detected using the PPiLight inorganic pyrophosphate assay kit (Lonza) (third step). 2 to 5 μl, such as 3 to 5 μl, typically 3 or 4 μl, for instance 4 μl, of a 1:1 mixture of PPiLight converting reagent (AMP) and PPiLight detection reagent are added to the reaction mixture. In the presence of pyrophosphate, the detection reagent catalyzes the conversion of AMP to ATP. Luciferase then produces light from the newly formed ATP and luciferin. The amount of light produced is directly proportional to the amount of PPi in the sample. Following signal development for 1 h the plates are analysed in an EnVision (PerkinElmer) microplate reader using the ultra sensitive luminescence option. Data are processed employing the Genedata Screener software. In particular, IC50 values are determined in the usual manner (using the Hill Equation) by fitting a dose-response curve to the data points using nonlinear regression analysis.
Hill Equation: Y=S0+(Sinf−S0)/(1+(10^logIC50/10^c)^n); Y: luminescence signal (response), S0: activity level at zero concentration of test compound, Sinf=activity level at infinite concentration, Hill coefficient n=measure of the slope at IC50, c=concentration in logarithmic units corresponding to the values on the x-axis of the dose response curve plot

| SMILES | IC50 [nM] |
| --- | --- |
| Nc1nc(NC2CC2)cc(N2CC[C@](O)(c3ccccc3)C2)n1 (single isomer, unassigned) [Example 37] | 1 to 100 |
| Nc1nc(NC2CC2)cc(N2CC[C@@](O)(c3ccccc3)C2)n1 (single isomer, unassigned) [Example 38] | 1 to 100 |
| CNc1cc(N2CCC[C@@](O)(c3ccccc3)C2)nc(N)n1 (single isomer, unassigned) [Example 90] | 1 to 100 |
| CNc1cc(N2CCCCC2Cc2ccccc2OC)nc(N)n1 (single isomer, unassigned) [Example 106] | < 1 |
| CNc1cc(N2CCC(CO)C2)nc(N)n1 (stereo not drawn) [Example 1, [1-(2-amino-6-methylamino-pyrimidin-4-yl)-pyrrolidin-3-yl]-methanol] | < 1 |
| Nc1nc(NC2CC2)cc(N2CCC(CO)C2)n1 (stereo not drawn) [Example 2, [1-(2-amino-6-cyclopropyl amino-pyrimidin-4-yl)-pyrrolidin-3-yl]-methanol] | < 1 |
| Nc1nc(NC2CC2)cc(N2CCC(F)(F)C2)n1 [Example 4, N^4-cyclopropyl-6-(3,3-difluoro-pyrrolidin-1-yl)-pyrimidine-2,4-diamine] | 1 to 100 |
| Nc1nc(NC2CC2)cc(N2CCC(O)C2)n1 (stereo not drawn) [Example 6, 1-(2-amino-6-cyclopropylamino-pyrimidin-4-yl)-pyrrolidin-3-ol] | 1 to 100 |
| CNc1cc(N2CCC(OC)C2)nc(N)n1 (stereo not drawn) [Example 9, 86-(3-methoxy-pyrrolidin-1-yl)-N^4-methyl-pyrimidine-2,4-diamine-formate] | < 1 |
| COC1CCN(c2cc(NC3CC3)nc(N)n2)C1 (stereo not drawn) [Example 10, N^4-cyclopropyl-6-(3-methoxy-pyrrolidin-1-yl)-pyri midine-2,4-diamine-formate] | 1 to 100 |
| Nc1nc(NC2CC2)cc(N2CCC[C@@H]2CO)n1 [Example 11, [(R)-1-(2-amino-6-cyclopropylamino-pyrimidin-4-yl)-pyrrolidin-2-yl]-methanol-formate] | 1 to 100 |
| CNc1cc(N2CCC[C@H]2CO)nc(N)n1 [Example 12, [(S)-1-(2-amino-6-methylamino-pyrimidin-4-yl)-pyrrolidin-2-yl]-methanol] | 1 to 100 |
| Nc1nc(NC2CC2)cc(N2CCC[C@H]2CO)n1 [Example 13, [(S)-1-(2-amino-6-cyclopropylamino-pyrimidin-4-yl)-pyrrolidin-2-yl]-methanol] | 1 to 100 |
| Nc1nc(NC2CC2)cc(N2CCCC2Cc2ccccc2Cl)n1 (stereo not drawn) [Example 36, 6-[2-(2-Chloro-benzyl)-pyrrolidin-1-yl]-N4-cyclopropyl-pyrimidine-2,4-diamine] | < 1 |
| CC1CCN(c2cc(NC3CC3)nc(N)n2)C1C (stereo not drawn) [Example 39, N4-Cyclopropyl-6-(2,3-dimethyl-pyrrolidin-1-yl)-pyrimidine-2,4-diamine] | 1 to 100 |
| CCC1(O)CCN(c2cc(NC3CC3)nc(N)n2)C1 (stereo not drawn) [Example 40, 1-(2-Amino-6-cyclopropylamino-pyrimidin-4-yl)-3-ethyl-pyrrolidin-3-ol] | 1 to 100 |
| CC1C(c2ccccc2)CCN1c1cc(NC2CC2)nc(N)n1 (stereo not drawn) [Example 41, N4-Cyclopropyl-6-(2-methyl-3-phenyl-pyrrolidin-1-yl)-pyrimidine-2,4-diamine] | 1 to 100 |
| Nc1nc(NC2CC2)cc(N2CCC(O)(C(F)(F)F)C2)n1 (stereo not drawn) [Example 42, 1-(2-Amino-6-cyclopropylamino-pyrimidin-4-yl)-3-trifluoromethyl-pyrrolidin-3-ol] | 1 to 100 |

| SMILES | IC50 [nM] |
| --- | --- |
| NC(=O)[C@@H]1CCN(c2cc(NC3CC3)nc(N)n2)C1 [Example 59, (R)-1-(2-Amino-6-cyclopropylamino-pyrimidin-4-yl)-pyrrolidine-3-carboxylic acid amide] | 1 to 100 |
| CNc1cc(N2CC[C@@H](O)C2)nc(N)n1 [Example 60, (R)-1-(2-Amino-6-methylamino-pyrimidin-4-yl)-pyrrolidin-3-ol] | 1 to 100 |
| NC(=O)[C@H]1CCN(c2cc(NC3CC3)nc(N)n2)C1 [Example 61, (S)-1-(2-Amino-6-cyclopropylamino-pyrimidin-4-yl)-pyrrolidine-3-carboxylic acid amide] | 1 to 100 |
| CNc1cc(N2CC[C@@H](CO)C2)nc(N)n1 [Example 64, [(R)-1-(2-Amino-6-methylamino-pyrimidin-4-yl)-pyrrolidin-3-yl]-methanol] | < 1 |
| CNc1cc(N2CC[C@H](CO)C2)nc(N)n1 [Example 65, [(S)-1-(2-Amino-6-methylamino-pyrimidin-4-yl)-pyrrolidin-3-yl]-methanol] | < 1 |
| Nc1nc(NC2CC2)cc(N2CC[C@@H](CO)C2)n1 [Example 66, [(R)-1-(2-Amino-6-cyclopropylamino-pyrimidin-4-yl)-pyrrolidin-3-yl]-methanol] | < 1 |
| Nc1nc(NC2CC2)cc(N2CC[C@H](CO)C2)n1 [Example 67, [(S)-1-(2-Amino-6-cyclopropylamino-pyrimidin-4-yl)-pyrrolidin-3-yl]-methanol] | 1 to 100 |
| CCNc1cc(N2CCC(F)(F)C2)nc(N)n1 [Example 68, 6-(3,3-Difluoro-pyrrolidin-1-yl)-N4-ethyl-pyrimidine-2,4-diamine] | 1 to 100 |
| CC(C)Nc1cc(N2CCC(F)(F)C2)nc(N)n1 [Example 69, 6-(3,3-Difluoro-pyrrolidin-1-yl)-N4-isopropyl-pyrimidine-2,4-diamine] | 1 to 100 |
| Nc1nc2c(c(N3CC[C@@H](O)C3)n1)CCCN2 [Example 70, (R)-1-(2-Amino-5,6,7,8-tetrahydro-pyrido[2,3-d]pyrimidin-4-yl)-pyrrolidin-3-ol] | < 1 |
| Nc1nc(NCC2CC2)cc(N2CCC(F)(F)C2)n1 [Example 71, N4-Cyclopropylmethyl-6-(3,3-difluoro-pyrrolidin-1-yl)-pyrimidine-2,4-diamine] | 1 to 100 |
| CCCNc1cc(N2CCC(F)(F)C2)nc(N)n1 [Example 72, 6-(3,3-Difluoro-pyrrolidin-1-yl)-N4-propyl-pyrimidine-2,4-diamine] | 1 to 100 |
| Nc1nc2c(c(N3CC[C@H](O)C3)n1)CCCN2 [Example 73, (S)-1-(2-Amino-5,6,7,8-tetrahydro-pyrido[2,3-d]pyrimidin-4-yl)-pyrrolidin-3-ol-formiate] | 1 to 100 |
| FC1(F)CCN(c2ncnc3c2CCCN3)C1 [Example 74, 4-(3,3-Difluoro-pyrrolidin-1-yl)-5,6,7,8-tetrahydro-pyrido[2,3-d]pyrimidine] | > 100 |
| NC(=O)[C@@H]1CCN(c2nc(N)nc3c2CCCN3)C1 [Example 75, (R)-1-(2-Amino-5,6,7,8-tetrahydro-pyrido[2,3-d]pyrimidin-4-yl)-pyrrolidine-3-carboxylic acid amide-trifluoroacetate] | > 100 |
| CNc1cc(N2CCCC(O)(c3ccccc3)C2)nc(N)n1 (stereo not drawn) [Example 79, 1-(2-Amino-6-methylamino-pyrimidin-4-yl)-3-phenyl-piperidin-3-ol] | 1 to 100 |
| Nc1nc(NC2CC2)cc(N2CCCC2C(=O)O)n1 (stereo not drawn) [Example 80, 1-(2-Amino-6-cyclopropylamino-pyrimidin-4-yl)-pyrrolidine-2-carboxylic acid] | > 100 |
| CNc1cc(N2CCCC2Cc2ccccc2OC)nc(N)n1 (stereo not drawn) [Example 82, 6-[2-(2-Methoxy-benzyl)-pyrrolidin-1-yl]-N4-methyl-pyrimidine-2,4-diamine] | < 1 |
